Data from patent publication US8795650B2, “Derivation of unlimited quantities of neutrophils or monocyte/dendritic cells” (The Regents of the University of California, priority 2004, dated 2014).

System: SCF Hoxb8-ER progenitors
Conditions: SCF medium supplemented with the cytokine
From the text: Cells were photographed 6 days after differentiation was initiated by removal of estradiol. […] Distribution of mature cell types is indicated below each column, as measured at the end of the 6 day differentiation.

Substance | progenitors maturing as macrophages (6 day differentiation) [%] | expansion during differentiation (estradiol removed) [fold] | impact on neutrophil-committed differentiation
GM-CSF | 16 | 830 | –
Erythropoietin | – | – | no impact
